Laboratory results reported in ChEMBL document CHEMBL1649268, “Comparative in vitro activity profile of oritavancin against recent gram-positive clinical isolates” (2009).
Converted amounts (≈) assume the structure as drawn.

Experiments:
Streptococcus pneumoniae [1] = experiment: Antimicrobial activity against Streptococcus pneumoniae clinical isolates assessed as resistant isolates by broth microdilution method; assay type: functional
[2] = Antimicrobial activity against erythromycin-nonsusceptible Streptococcus Group G clinical isolates assessed as percent susceptible isolates by broth microdilution method; assay type: functional, Streptococcus sp. 'group G'
Streptococcus pyogenes [3] = experiment: Antimicrobial activity against erythromycin-nonsusceptible Streptococcus pyogenes clinical isolates by broth microdilution method; assay type: functional
Streptococcus pyogenes [4] = experiment: Antimicrobial activity against Streptococcus pyogenes clinical isolates by broth microdilution method; assay type: functional
[5] = Antimicrobial activity against erythromycin-nonsusceptible Streptococcus Group G clinical isolates by broth microdilution method; assay type: functional; settings: Streptococcus sp. 'group G'
Streptococcus pneumoniae [6] = experiment: Antimicrobial activity against penicillin-resistant Streptococcus pneumoniae clinical isolates by broth microdilution method; assay type: functional
Streptococcus agalactiae [7] = experiment: Antimicrobial activity against erythromycin-nonsusceptible Streptococcus agalactiae clinical isolates assessed as percent susceptible isolates by broth microdilution method; assay type: functional
Streptococcus agalactiae [8] = experiment: Antimicrobial activity against erythromycin-susceptible Streptococcus agalactiae clinical isolates by broth microdilution method; assay type: functional
Streptococcus pyogenes [9] = experiment: Antimicrobial activity against erythromycin-susceptible Streptococcus pyogenes clinical isolates assessed as percent susceptible isolates by broth microdilution method; assay type: functional
Streptococcus agalactiae [10] = experiment: Antimicrobial activity against erythromycin-nonsusceptible Streptococcus agalactiae clinical isolates by broth microdilution method; assay type: functional
Streptococcus pneumoniae [11] = experiment: Antimicrobial activity against penicillin-resistant Streptococcus pneumoniae clinical isolates assessed as percent susceptible isolates by broth microdilution method; assay type: functional
[12] = Antimicrobial activity against Streptococcus Group C clinical isolates by broth microdilution method; assay type: functional; settings: Streptococcus sp. 'group C'
Streptococcus agalactiae [13] = experiment: Antimicrobial activity against Streptococcus agalactiae clinical isolates assessed as resistant isolates by broth microdilution method; assay type: functional
Staphylococcus aureus [14] = experiment: Antimicrobial activity against Staphylococcus aureus clinical isolates assessed as percent susceptible isolates by broth microdilution method; assay type: functional
[15] = Antimicrobial activity against erythromycin-susceptible Streptococcus Group G clinical isolates by broth microdilution method; assay type: functional; settings: Streptococcus sp. 'group G'
Staphylococcus aureus [16] = experiment: Antimicrobial activity against Staphylococcus aureus clinical isolates by broth microdilution method; assay type: functional
Streptococcus pyogenes [17] = experiment: Antimicrobial activity against erythromycin-nonsusceptible Streptococcus pyogenes clinical isolates assessed as percent susceptible isolates by broth microdilution method; assay type: functional
Streptococcus agalactiae [18] = experiment: Antimicrobial activity against erythromycin-susceptible Streptococcus agalactiae clinical isolates assessed as percent susceptible isolates by broth microdilution method; assay type: functional
Streptococcus [19] = experiment: Antimicrobial activity against Streptococcus Group F clinical isolates by broth microdilution method; assay type: functional
Streptococcus agalactiae [20] = experiment: Antimicrobial activity against Streptococcus agalactiae clinical isolates by broth microdilution method; assay type: functional
[21] = test system: Staphylococcus haemolyticus; experiment: Antimicrobial activity against oxacillin-resistant Staphylococcus haemolyticus clinical isolates assessed as resistant isolates by broth microdilution method; assay type: functional
[22] = test system: Staphylococcus haemolyticus; experiment: Antimicrobial activity against Staphylococcus haemolyticus clinical isolates assessed as percent susceptible isolates by broth microdilution method; assay type: functional
[23] = test system: Staphylococcus epidermidis; experiment: Antimicrobial activity against oxacillin-susceptible Staphylococcus epidermidis clinical isolates assessed as resistant isolates by broth microdilution method; assay type: functional
[24] = Antimicrobial activity against erythromycin-nonsusceptible Streptococcus Group C clinical isolates assessed as percent susceptible isolates by broth microdilution method; assay type: functional, Streptococcus sp. 'group C'
[25] = test system: Staphylococcus epidermidis; experiment: Antimicrobial activity against Staphylococcus epidermidis clinical isolates by broth microdilution method; assay type: functional
[26] = test system: Staphylococcus epidermidis; experiment: Antimicrobial activity against oxacillin-resistant Staphylococcus epidermidis clinical isolates by broth microdilution method; assay type: functional
Streptococcus pyogenes [27] = experiment: Antimicrobial activity against Streptococcus pyogenes clinical isolates assessed as resistant isolates by broth microdilution method; assay type: functional
[28] = test system: Staphylococcus haemolyticus; experiment: Antimicrobial activity against Staphylococcus haemolyticus clinical isolates by broth microdilution method; assay type: functional
Streptococcus agalactiae [29] = experiment: Antimicrobial activity against erythromycin-nonsusceptible Streptococcus agalactiae clinical isolates assessed as resistant isolates by broth microdilution method; assay type: functional
[30] = test system: Staphylococcus haemolyticus; experiment: Antimicrobial activity against oxacillin-susceptible Staphylococcus haemolyticus clinical isolates assessed as percent susceptible isolates by broth microdilution method; assay type: functional
Streptococcus pneumoniae [31] = experiment: Antimicrobial activity against penicillin-susceptible Streptococcus pneumoniae clinical isolates by broth microdilution method; assay type: functional
[32] = test system: Staphylococcus epidermidis; experiment: Antimicrobial activity against Staphylococcus epidermidis clinical isolates assessed as percent susceptible isolates by broth microdilution method; assay type: functional
Streptococcus pneumoniae [33] = experiment: Antimicrobial activity against penicillin-intermediate Streptococcus pneumoniae clinical isolates by broth microdilution method; assay type: functional
Staphylococcus aureus [34] = experiment: Antimicrobial activity against oxacillin-resistant Staphylococcus aureus clinical isolates assessed as percent susceptible isolates by broth microdilution method; assay type: functional
[35] = test system: Staphylococcus haemolyticus; experiment: Antimicrobial activity against oxacillin-susceptible Staphylococcus haemolyticus clinical isolates by broth microdilution method; assay type: functional
[36] = test system: Staphylococcus epidermidis; experiment: Antimicrobial activity against oxacillin-susceptible Staphylococcus epidermidis clinical isolates by broth microdilution method; assay type: functional
[37] = test system: Staphylococcus epidermidis; experiment: Antimicrobial activity against oxacillin-susceptible Staphylococcus epidermidis clinical isolates assessed as percent susceptible isolates by broth microdilution method; assay type: functional
Staphylococcus aureus [38] = experiment: Antimicrobial activity against oxacillin-susceptible Staphylococcus aureus clinical isolates by broth microdilution method; assay type: functional
Streptococcus pneumoniae [39] = experiment: Antimicrobial activity against penicillin-resistant Streptococcus pneumoniae clinical isolates assessed as resistant isolates by broth microdilution method; assay type: functional
[40] = test system: Staphylococcus haemolyticus; experiment: Antimicrobial activity against Staphylococcus haemolyticus clinical isolates assessed as resistant isolates by broth microdilution method; assay type: functional
[41] = test system: Staphylococcus epidermidis; experiment: Antimicrobial activity against oxacillin-resistant Staphylococcus epidermidis clinical isolates assessed as resistant isolates by broth microdilution method; assay type: functional
Streptococcus pneumoniae [42] = experiment: Antimicrobial activity against Streptococcus pneumoniae clinical isolates assessed as percent susceptible isolates by broth microdilution method; assay type: functional
[43] = test system: Staphylococcus haemolyticus; experiment: Antimicrobial activity against oxacillin-resistant Staphylococcus haemolyticus clinical isolates assessed as percent susceptible isolates by broth microdilution method; assay type: functional
[44] = test system: Staphylococcus epidermidis; experiment: Antimicrobial activity against Staphylococcus epidermidis clinical isolates assessed as resistant isolates by broth microdilution method; assay type: functional
[45] = Antimicrobial activity against erythromycin-nonsusceptible Streptococcus Group C clinical isolates by broth microdilution method; assay type: functional; settings: Streptococcus sp. 'group C'
Streptococcus agalactiae [46] = experiment: Antimicrobial activity against Streptococcus agalactiae clinical isolates assessed as percent susceptible isolates by broth microdilution method; assay type: functional
[47] = Antimicrobial activity against erythromycin-susceptible Streptococcus Group C clinical isolates assessed as percent susceptible isolates by broth microdilution method; assay type: functional, Streptococcus sp. 'group C'
[48] = Antimicrobial activity against Streptococcus Group G clinical isolates by broth microdilution method; assay type: functional; settings: Streptococcus sp. 'group G'
Streptococcus pyogenes [49] = experiment: Antimicrobial activity against erythromycin-susceptible Streptococcus pyogenes clinical isolates by broth microdilution method; assay type: functional
Streptococcus pneumoniae [50] = experiment: Antimicrobial activity against penicillin-intermediate Streptococcus pneumoniae clinical isolates assessed as percent susceptible isolates by broth microdilution method; assay type: functional
[51] = test system: Staphylococcus epidermidis; experiment: Antimicrobial activity against oxacillin-resistant Staphylococcus epidermidis clinical isolates assessed as percent susceptible isolates by broth microdilution method; assay type: functional
Streptococcus pneumoniae [52] = experiment: Antimicrobial activity against Streptococcus pneumoniae clinical isolates by broth microdilution method; assay type: functional
Staphylococcus aureus [53] = experiment: Antimicrobial activity against oxacillin-susceptible Staphylococcus aureus clinical isolates assessed as percent susceptible isolates by broth microdilution method; assay type: functional
Streptococcus [54] = experiment: Antimicrobial activity against erythromycin-susceptible Streptococcus Group F clinical isolates by broth microdilution method; assay type: functional
Streptococcus pyogenes [55] = experiment: Antimicrobial activity against Streptococcus pyogenes clinical isolates assessed as percent susceptible isolates by broth microdilution method; assay type: functional
Streptococcus pyogenes [56] = experiment: Antimicrobial activity against erythromycin-nonsusceptible Streptococcus pyogenes clinical isolates assessed as resistant isolates by broth microdilution method; assay type: functional
Streptococcus pneumoniae [57] = experiment: Antimicrobial activity against penicillin-intermediate Streptococcus pneumoniae clinical isolates assessed as resistant isolates by broth microdilution method; assay type: functional
[58] = test system: Staphylococcus haemolyticus; experiment: Antimicrobial activity against oxacillin-susceptible Staphylococcus haemolyticus clinical isolates assessed as resistant isolates by broth microdilution method; assay type: functional
Staphylococcus aureus [59] = experiment: Antimicrobial activity against oxacillin-susceptible Staphylococcus aureus clinical isolates assessed as resistant isolates by broth microdilution method; assay type: functional
Staphylococcus aureus [60] = experiment: Antimicrobial activity against oxacillin-resistant Staphylococcus aureus clinical isolates assessed as resistant isolates by broth microdilution method; assay type: functional
[61] = Antimicrobial activity against erythromycin-susceptible Streptococcus Group C clinical isolates by broth microdilution method; assay type: functional; settings: Streptococcus sp. 'group C'
[62] = Antimicrobial activity against erythromycin-susceptible Streptococcus Group G clinical isolates assessed as percent susceptible isolates by broth microdilution method; assay type: functional, Streptococcus sp. 'group G'
Streptococcus [63] = experiment: Antimicrobial activity against erythromycin-nonsusceptible Streptococcus Group F clinical isolates by broth microdilution method; assay type: functional
Streptococcus pneumoniae [64] = experiment: Antimicrobial activity against penicillin-susceptible Streptococcus pneumoniae clinical isolates assessed as resistant isolates by broth microdilution method; assay type: functional
Staphylococcus aureus [65] = experiment: Antimicrobial activity against Staphylococcus aureus clinical isolates assessed as resistant isolates by broth microdilution method; assay type: functional
Streptococcus pneumoniae [66] = experiment: Antimicrobial activity against penicillin-susceptible Streptococcus pneumoniae clinical isolates assessed as percent susceptible isolates by broth microdilution method; assay type: functional

`CC[C@H]1OC(=O)[C@H](C)[C@@H](O[C@H]2C[C@@](C)(OC)[C@@H](O)[C@H](C)O2)[C@H](C)[C@@H](O[C@@H]2O[C@H](C)C[C@H](N(C)C)[C@H]2O)[C@](C)(O)C[C@@H](C)C(=O)[C@H](C)[C@@H](O)[C@]1(C)O` [ERYTHROMYCIN] gave a Resistant isolates (Streptococcus pneumoniae [1]) of 32.4%, an Activity [2] of 0% and an MIC90 (Streptococcus pyogenes [3]) of over 2 µg/mL. The MIC90 (Streptococcus pyogenes [4]) was over 2 µg/mL, the MIC90 [5] was over 2 µg/mL and the MIC (Streptococcus pneumoniae [6]) was over 0.03 µg/mL. The Activity (Streptococcus agalactiae [7]) was 0%, the MIC90 (Streptococcus agalactiae [8]) was 0.06 µg/mL (≈ 0.0818 µM) and the Activity (Streptococcus pyogenes [9]) was 100%. It also gave an MIC90 (Streptococcus agalactiae [10]) of over 2 µg/mL, an Activity (Streptococcus pneumoniae [11]) of 14.9% and an MIC90 [12] of 2 µg/mL (≈ 2.73 µM). The Activity (Streptococcus agalactiae [13]) was 28.7%, the Activity (Staphylococcus aureus [14]) was 32.6% and the MIC90 [15] was 0.06 µg/mL (≈ 0.0818 µM). It also gave an MIC90 (Staphylococcus aureus [16]) of over 8 µg/mL, an Activity (Streptococcus pyogenes [17]) of 0% and an Activity (Streptococcus agalactiae [18]) of 100%. It also gave an MIC90 (Streptococcus [19]) of 2 µg/mL (≈ 2.73 µM), an MIC90 (Streptococcus agalactiae [20]) of over 2 µg/mL and an Activity [21] of 88.3%. For the same compound, the Activity [22] was 21.6%, the “Percent of isolates resistant” value [23] was 45.4% and the Activity [24] was 0%. It also gave an MIC90 [25] of over 8 µg/mL, an MIC [26] of at least 0.12 µg/mL and an Activity (Streptococcus pyogenes [27]) of 13.6%. It also gave an MIC90 [28] of over 8 µg/mL, an Activity (Streptococcus agalactiae [29]) of 97.5% and an Activity [30] of 48.6%. For the same compound, the MIC90 (Streptococcus pneumoniae [31]) was over 2 µg/mL, the Activity [32] was 32.2% and the MIC90 (Streptococcus pneumoniae [33]) was over 2 µg/mL. For the same compound, the Activity (Staphylococcus aureus [34]) was 8.4%, the MIC90 [35] was over 8 µg/mL and the MIC90 [36] was over 8 µg/mL. For the same compound, the Activity [37] was 53.8%, the MIC90 (Staphylococcus aureus [38]) was over 8 µg/mL and the “Percent of isolates resistant” value (Streptococcus pneumoniae [39]) was 84.5%. The Resistant isolates [40] was 78.4%, the “Percent of isolates resistant” value [41] was 75.3% and the Activity (Streptococcus pneumoniae [42]) was 67.3%. For the same compound, the Activity [43] was 11.7%, the “Percent of isolates resistant” value [44] was 67.2% and the MIC90 [45] was over 2 µg/mL. The Activity (Streptococcus agalactiae [46]) was 70.6%, the Activity [47] was 100% and the MIC90 [48] was 2 µg/mL (≈ 2.73 µM). It also gave an MIC90 (Streptococcus pyogenes [49]) of 0.06 µg/mL (≈ 0.0818 µM), an Activity (Streptococcus pneumoniae [50]) of 41.2% and an Activity [51] of 24.1%. It also gave an MIC90 (Streptococcus pneumoniae [52]) of over 2 µg/mL, an Activity (Staphylococcus aureus [53]) of 60.7% and an MIC90 (Streptococcus [54]) of 0.06 µg/mL (≈ 0.0818 µM). The Activity (Streptococcus pyogenes [55]) was 86.3%, the Activity (Streptococcus pyogenes [56]) was 99.2% and the “Percent of isolates resistant” value (Streptococcus pneumoniae [57]) was 58.8%. For the same compound, the Activity [58] was 51.4%, the “Percent of isolates resistant” value (Staphylococcus aureus [59]) was 35.9% and the Percent resistant isolates (Staphylococcus aureus [60]) was 90.5%. The MIC90 [61] was 0.06 µg/mL (≈ 0.0818 µM), the Activity [62] was 100% and the MIC90 (Streptococcus [63]) was over 2 µg/mL. For the same compound, the “Percent of isolates resistant” value (Streptococcus pneumoniae [64]) was 11.6%, the Percent resistant isolates (Staphylococcus aureus [65]) was 65.3% and the Activity (Streptococcus pneumoniae [66]) was 88.1%.
